From paper PMC8821502, “Engineering a feedback inhibition-insensitive plant dihydrodipicolinate synthase to increase lysine content in Camelina sativa seeds” (Transgenic Research, 2021)

Key:
Assay in all cases: o-aminobenzaldehyde colorimetric DHDPS assay, […] nm
Format in all cases: biochemical
CsDHDPS B6 (wt CsDHDPS) [1] = molecular target: T1, CsDHDPS B6 (wt CsDHDPS) (Camelina sativa, UniProt A0ABM0Z9P4); conditions: 2 mM L-ASA, 35 mM pyruvate, pH 8, 37 °C; E. coli extract
T1 construct: gene LOC104788368; ORF (365 aa, includes predicted 38-aa chloroplast transit peptide) in pUC18 in-frame with LacZ start codon; E. coli cell extract, not purified; modelled as tetramer
T1 sequence (A0ABM0Z9P4 entry or part of it): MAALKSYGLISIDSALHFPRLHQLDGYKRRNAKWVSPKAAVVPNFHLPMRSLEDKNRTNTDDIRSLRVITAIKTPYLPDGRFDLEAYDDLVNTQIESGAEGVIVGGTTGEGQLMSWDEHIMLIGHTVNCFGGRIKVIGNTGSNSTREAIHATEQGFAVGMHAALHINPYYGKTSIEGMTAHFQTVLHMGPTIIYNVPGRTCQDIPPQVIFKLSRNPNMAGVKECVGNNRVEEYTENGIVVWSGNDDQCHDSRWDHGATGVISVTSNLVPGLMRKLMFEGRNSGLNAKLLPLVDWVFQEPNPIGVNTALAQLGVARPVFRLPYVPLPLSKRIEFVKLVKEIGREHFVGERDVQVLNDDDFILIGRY

CgDHDPS = molecular target: T2, CgDHDPS (Corynebacterium glutamicum, UniProt P19808); conditions: 2 mM L-ASA, 35 mM pyruvate, pH 8, 37 °C; E. coli extract
T2 construct: gene dapA; ORF (301 aa) in pUC18; E. coli cell extract, not purified
T2 sequence (P19808 1-301): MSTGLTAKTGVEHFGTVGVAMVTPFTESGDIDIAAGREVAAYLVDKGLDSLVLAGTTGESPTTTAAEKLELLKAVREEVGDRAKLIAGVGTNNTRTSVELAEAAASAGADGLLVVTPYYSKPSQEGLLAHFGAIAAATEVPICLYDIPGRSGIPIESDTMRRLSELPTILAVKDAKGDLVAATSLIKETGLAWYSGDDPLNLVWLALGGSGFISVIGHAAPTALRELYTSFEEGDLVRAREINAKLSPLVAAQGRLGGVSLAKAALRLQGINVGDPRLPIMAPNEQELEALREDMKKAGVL

CsDHDPS B6 (wt CsDHDPS) [2] = molecular target: T1, CsDHDPS B6 (wt CsDHDPS); conditions: read-out: % activity remaining at 25 μM lysine

## N[C@@H](CC=O)C(=O)O [L-aspartic-β-semi-aldehyde]
CsDHDPS B6 (wt CsDHDPS) [1]
  o-aminobenzaldehyde colorimetric DHDPS assay, 520 nm: using L-aspartic-β-semi-aldehyde (L-ASA) as the substrate
CgDHDPS
  o-aminobenzaldehyde colorimetric DHDPS assay, 520 nm: using L-aspartic-β-semi-aldehyde (L-ASA) as the substrate

## NCCCC[C@H](N)C(=O)O [lysine]
CsDHDPS B6 (wt CsDHDPS) [2]
  remaining activity at 25 µM: 20%
